Experimental data published in ChEMBL document CHEMBL4627323, “Synthesis and anti-OXPHOS, antitumor activities of DLC modified spinosyn derivatives” (Bioorg Med Chem Lett, 2020).
Active and inactive are the calls of the source. The calls are words filed in the database; no cut-off is given here.

Columns and labels:
[1] = test system: NCI-H460; assay: Induction of apoptosis in human NCI-H460 cells assessed as viable cells at 2 uM by Annexin V/PI staining based flow cytometric analysis (reference value: 95.3%); assay type: functional; details: read-out: Activity
[2] = test system: NCI-H460; assay: Induction of apoptosis in human NCI-H460 cells assessed as viable cells at 4 uM by Annexin V/PI staining based flow cytometric analysis (reference value: 95.3%); assay type: functional; details: read-out: Activity
[3] = test system: NCI-H460; assay: Induction of apoptosis in human NCI-H460 cells assessed as necrotic cells at 2 uM by Annexin V/PI staining based flow cytometric analysis (reference value: 2.75%); assay type: functional
[4] = Toxicity in nude mouse xenografted with human NCI-H460 cells assessed as mortality at 5 mg/kg, ip administered every other day for 21 days; assay type: organism-based; details: in vivo, 504 h
[5] = test system: NCI-H460; assay: Antitumor activity against human NCI-H460 cells xenografted in nude mouse assessed as decrease in tumor volume at 2.5 mg/kg, ip administered every other day for 21 days measured every 3 days; assay type: functional, organism-based
[6] = test system: NCI-H460; assay: Induction of apoptosis in human NCI-H460 cells assessed as early apoptotic cells at 2 uM by Annexin V/PI staining based flow cytometric analysis (reference value: […]); assay type: functional
[7] = test system: NCI-H460; assay: Induction of apoptosis in human NCI-H460 cells assessed as late apoptotic cells at 4 uM by Annexin V/PI staining based flow cytometric analysis (reference value: 1.17%); assay type: functional
[8] = test system: HCT-116; assay: Antiproliferative activity against human HCT116 cells incubated for 48 hrs; assay type: functional, cell-based; details: HCT-116, 48 h
[9] = test system: NCI-H460; assay: Anti-OXPHOS activity in human NCI-H460 cells assessed as inhibition of oxygen consumption rate at 8 uM in presence of uncoupling agent, FCCP by seahorse XFe96 analyser based assay
[10] = test system: NCI-H460; assay: Induction of apoptosis in human NCI-H460 cells assessed as necrotic cells at 4 uM by Annexin V/PI staining based flow cytometric analysis (reference value: 2.75%); assay type: functional
[11] = test system: MCF7; assay: Antiproliferative activity against human MCF7 cells incubated for 48 hrs; assay type: functional, cell-based; details: MCF7, 48 h
[12] = test system: NCI-H460; assay: Anti-OXPHOS activity in human NCI-H460 cells assessed as inhibition of oxygen consumption rate at 8 uM by seahorse XFe96 analyser based assay
[13] = test system: NCI-H460; assay: Induction of apoptosis in human NCI-H460 cells assessed as late apoptotic cells at 2 uM by Annexin V/PI staining based flow cytometric analysis (reference value: 1.17%); assay type: functional
[14] = Toxicity in nude mouse xenografted with human NCI-H460 cells assessed as body weight loss at 2.5 to 5 mg/kg, ip administered every other day for 21 days; assay type: organism-based; details: in vivo, 504 h
[15] = test system: NCI-H460; assay: Antiproliferative activity against human NCI-H460 cells assessed as inhibition of cell growth at 32 uM incubated for 3 hrs; assay type: functional, cell-based
[16] = test system: NCI-H460; assay: Antiproliferative activity against human NCI-H460 cells incubated for 48 hrs; assay type: functional, cell-based; details: NCI-H460, 48 h
[17] = test system: NCI-H460; assay: Induction of apoptosis in human NCI-H460 cells assessed as early apoptotic cells at 4 uM by Annexin V/PI staining based flow cytometric analysis (reference value: […]); assay type: functional
[18] = test system: NCI-H460; assay: Anti-OXPHOS activity in human NCI-H460 cells assessed as inhibition of mitochondrial oxidative phosphorylation by seahorse XFe96 analyser based assay; details: Mitochondria
[19] = test system: NCI-H460; assay: Antitumor activity against human NCI-H460 cells xenografted in nude mouse assessed as inhibition of tumor mass at 2.5 mg/kg, ip administered every other day for 21 days measured every 3 days; assay type: functional
[20] = test system: NCI-H460; assay: Induction of apoptosis in human NCI-H460 cells by Annexin V/PI staining based flow cytometric analysis; assay type: functional, cell-based
[21] = test system: U-87 MG; assay: Antiproliferative activity against human U87MG cells incubated for 48 hrs; assay type: functional, cell-based, U-87MG ATCC
[22] = test system: NCI-H460; assay: Anti-OXPHOS activity in human NCI-H460 cells assessed as inhibition of oxygen consumption rate at 4 uM incubated for 1 hr by seahorse XFe96 analyser based assay relative to control
[23] = test system: NCI-H460; assay: Inhibition of F0 subunit in F0F1 ATP synthase in human NCI-H460 cells assessed as inhibition of oxygen consumption rate at 1 uM by seahorse XFe96 analyser based assay; assay type: cell-based
[24] = Toxicity in nude mouse xenografted with human NCI-H460 cells assessed as mortality at 10 mg/kg, ip administered every other day for 21 days; assay type: organism-based; details: in vivo, 504 h
[25] = test system: NCI-H460; assay: Antitumor activity against human NCI-H460 cells xenografted in nude mouse assessed as decrease in tumor volume at 5 mg/kg, ip administered every other day for 21 days measured every 3 days; assay type: functional, organism-based
[26] = test system: NCI-H460; assay: Antitumor activity against human NCI-H460 cells xenografted in nude mouse assessed as inhibition of tumor mass at 5 mg/kg, ip administered every other day for 21 days measured every 3 days; assay type: functional
[27] = Toxicity in nude mouse xenografted with human NCI-H460 cells assessed as body weight loss at 5 to 10 mg/kg, ip administered every other day for 21 days; assay type: organism-based; details: in vivo, 504 h

SMILES: CC[C@H]1CCC[C@H](O[C@H]2CC[C@H](N(C)CCCCCC[P+](c3ccccc3)(c3ccccc3)c3ccccc3)[C@@H](C)O2)[C@@H](C)C(=O)C2=C[C@@H]3[C@@H](C=C[C@@H]4C[C@@H](O[C@@H]5O[C@@H](C)[C@H](OC)[C@@H](OC)[C@H]5OC)C[C@@H]34)[C@@H]2CC(=O)O1.[Br-]
- viability at 2 µM [1]: 74.8%
- viability at 4 µM [2]: 69.3%
- Activity [3]: 1.38%
- Activity [4]: Toxic
- inhibition [5]: Active
- Activity [6]: 19.9%
- Activity [7]: 6.99%
- IC50 [8]: 0.3 µM
- inhibition [9]: inactive
- Activity [10]: 1.69%
- IC50 [11]: 2 µM
- inhibition [12]: Active
- Activity [13]: 3.91%
- Activity [14]: Non-Toxic
- inhibition [15]: inactive
- IC50 [16]: 1.6 µM
- Activity [17]: 22%
- inhibition [18]: Dose-dependent effect
- inhibition in vivo at 2.5 mg/kg [19]: 14.6%
- Activity [20]: Dose-dependent effect
- IC50 [21]: 1.3 µM
- inhibition [22]: 42%

SMILES: CC[C@H]1CCC[C@H](O[C@H]2CC[C@H](N(C)CCC[P+](c3ccccc3)(c3ccccc3)c3ccccc3)[C@@H](C)O2)[C@@H](C)C(=O)C2=C[C@@H]3[C@@H](C=C[C@@H]4C[C@@H](O[C@@H]5O[C@@H](C)[C@H](OC)[C@@H](OC)[C@H]5OC)C[C@@H]34)[C@@H]2CC(=O)O1
- IC50 [8]: 0.1 µM
- IC50 [11]: 4.1 µM
- IC50 [16]: 2.7 µM
- IC50 [21]: 1.3 µM

SMILES: CC[C@H]1CCC[C@H](O[C@H]2CC[C@H](N(C)CCC[n+]3ccccc3)[C@@H](C)O2)[C@@H](C)C(=O)C2=C[C@@H]3[C@@H](C=C[C@@H]4C[C@@H](O[C@@H]5O[C@@H](C)[C@H](OC)[C@@H](OC)[C@H]5OC)C[C@@H]34)[C@@H]2CC(=O)O1
- IC50 [11]: 23.7 µM

SMILES: CC[C@H]1CCC[C@H](O[C@H]2CC[C@H](N(C)C)[C@@H](C)O2)[C@@H](C)C(=O)C2=C[C@@H]3[C@@H](C=C[C@@H]4C[C@@H](O[C@@H]5O[C@@H](C)[C@H](OC)[C@@H](OC)[C@H]5OC)C[C@@H]34)[C@@H]2CC(=O)O1 [SPINOSYN A]
- IC50 [8]: 11.1 µM
- IC50 [11]: 17.9 µM
- IC50 [16]: 67.5 µM
- IC50 [21]: 96.5 µM

SMILES: CC[C@H]1CCC[C@H](OC(=O)CCC[n+]2ccccc2)[C@@H](C)C(=O)C2=C[C@@H]3[C@@H](C=C[C@@H]4C[C@@H](O[C@@H]5O[C@@H](C)[C@H](OC)[C@@H](OC)[C@H]5OC)C[C@@H]34)[C@@H]2CC(=O)O1
- IC50 [11]: > 100 µM

SMILES: CC[C@H]1CCC[C@H](OC(=O)CCC[P+](c2ccccc2)(c2ccccc2)c2ccccc2)[C@@H](C)C(=O)C2=C[C@@H]3[C@@H](C=C[C@@H]4C[C@@H](O[C@@H]5O[C@@H](C)[C@H](OC)[C@@H](OC)[C@H]5OC)C[C@@H]34)[C@@H]2CC(=O)O1
- IC50 [8]: 0.8 µM
- IC50 [11]: 3.1 µM
- IC50 [16]: 1.5 µM
- IC50 [21]: 2.7 µM

SMILES: CC[C@H]1CCC[C@H](O[C@H]2CC[C@H](N(C)CCC[n+]3cccc(C(N)=O)c3)[C@@H](C)O2)[C@@H](C)C(=O)C2=C[C@@H]3[C@@H](C=C[C@@H]4C[C@@H](O[C@@H]5O[C@@H](C)[C@H](OC)[C@@H](OC)[C@H]5OC)C[C@@H]34)[C@@H]2CC(=O)O1
- IC50 [11]: > 100 µM

SMILES: CC[C@H]1CCC[C@H](OC(=O)C[n+]2cccc(C(N)=O)c2)[C@@H](C)C(=O)C2=C[C@@H]3[C@@H](C=C[C@@H]4C[C@@H](O[C@@H]5O[C@@H](C)[C@H](OC)[C@@H](OC)[C@H]5OC)C[C@@H]34)[C@@H]2CC(=O)O1
- IC50 [11]: > 100 µM

SMILES: CC[C@H]1CCC[C@H](O[C@H]2CC[C@H](N(C)CCCCCC[n+]3cccc(C(N)=O)c3)[C@@H](C)O2)[C@@H](C)C(=O)C2=C[C@@H]3[C@@H](C=C[C@@H]4C[C@@H](O[C@@H]5O[C@@H](C)[C@H](OC)[C@@H](OC)[C@H]5OC)C[C@@H]34)[C@@H]2CC(=O)O1
- IC50 [11]: 30.5 µM

SMILES: CC[C@H]1/C=C/C=C/C[C@@H](C)[C@H](O)[C@@](C)(O)C(=O)[C@@H](C)[C@H](O)[C@@H](C)C(=O)[C@@H](C)[C@H](O)[C@@H](C)/C=C/C(=O)O[C@@H]2[C@H](C)[C@H](CC1)O[C@]1(CC[C@H](C)[C@H](C[C@@H](C)O)O1)[C@H]2C
- inhibition [23]: Active

SMILES: CC[C@H]1CCC[C@H](OC(=O)C[n+]2ccccc2)[C@@H](C)C(=O)C2=C[C@@H]3[C@@H](C=C[C@@H]4C[C@@H](O[C@@H]5O[C@@H](C)[C@H](OC)[C@@H](OC)[C@H]5OC)C[C@@H]34)[C@@H]2CC(=O)O1
- IC50 [11]: > 100 µM

SMILES: CC[C@H]1CCC[C@H](O[C@H]2CC[C@H](N(C)CCCCCC[n+]3ccc4ccccc4c3)[C@@H](C)O2)[C@@H](C)C(=O)C2=C[C@@H]3[C@@H](C=C[C@@H]4C[C@@H](O[C@@H]5O[C@@H](C)[C@H](OC)[C@@H](OC)[C@H]5OC)C[C@@H]34)[C@@H]2CC(=O)O1.[Br-]
- viability at 2 µM [1]: 84.4%
- Activity [24]: Toxic
- viability at 4 µM [2]: 70.7%
- Activity [3]: 1.21%
- Activity [6]: 9.36%
- Activity [7]: 6.98%
- IC50 [8]: 2.8 µM
- inhibition [9]: inactive
- inhibition [25]: Active
- Activity [10]: 1.58%
- IC50 [11]: 8.9 µM
- inhibition [12]: Active
- Activity [13]: 5.01%
- inhibition [15]: inactive
- IC50 [16]: 4.6 µM
- Activity [17]: 20.7%
- inhibition in vivo at 5 mg/kg [26]: 8.8%
- inhibition [18]: Dose-dependent effect
- Activity [27]: Non-Toxic
- Activity [20]: Dose-dependent effect
- IC50 [21]: 2.5 µM
- inhibition [22]: 41%

SMILES: CC[C@H]1CCC[C@H](O[C@H]2CC[C@H](N(C)CCCCCC[n+]3ccccc3)[C@@H](C)O2)[C@@H](C)C(=O)C2=C[C@@H]3[C@@H](C=C[C@@H]4C[C@@H](O[C@@H]5O[C@@H](C)[C@H](OC)[C@@H](OC)[C@H]5OC)C[C@@H]34)[C@@H]2CC(=O)O1
- IC50 [8]: 9.8 µM
- IC50 [11]: 4.3 µM
- IC50 [16]: 22 µM
- IC50 [21]: 11.2 µM

SMILES: CC[C@H]1CCC[C@H](OC(=O)CCC[n+]2cccc(C(N)=O)c2)[C@@H](C)C(=O)C2=C[C@@H]3[C@@H](C=C[C@@H]4C[C@@H](O[C@@H]5O[C@@H](C)[C@H](OC)[C@@H](OC)[C@H]5OC)C[C@@H]34)[C@@H]2CC(=O)O1
- IC50 [11]: > 100 µM
